Results from patent publication US20120016011A1, “RNA Interference Mediated Inhibition of Connective Tissue Growth Factor (CTGF) Gene Expression Using Short Interfering Nucleic Acid (siNA)” (Merck Sharp & Dohme Corp., priority 2009, published 2012).
[invAb] = inverted abasic unit; m = 2'-O-methyl; r = 2'-OH (RNA); f = 2'-fluoro

Assays:
CTGF mRNA [1] = assay: CTGF mRNA knockdown (Taqman RT-PCR) after siNA transfection of human NHLF cells; format: cell-based; settings: 10 nM siNA, 24 hrs, average of 3 experiments, vs non-targeting control
Protocol: NHLF (Normal human lung fibroblasts; Lonza cat# CC-2512): Cells were cultured at 37° C. in the presence of 5% CO2 and grown in Fibroblast Basal Medium (Lonza cat# CC-3132) supplemented with 2% FBS and growth factors (provided with the kit) and 100 μg/mL of streptomycin and 100 U/mL penicillin.
(§1) Cells were plated in all wells of a tissue-culture treated, 96-well plate at a final count of 5000 cells/well in […], of the appropriate culture media. The cells were cultured for 24 hours after plating at 37° C. in the presence of 5% CO2.
(§2) After 24 hours, complexes containing siNA and RNAiMax were created as follows: A solution of RNAiMax diluted 33-fold in OPTI-MEM was prepared. In parallel, solutions of the siNAs for testing were prepared to a final concentration of 120 nM in OPTI-MEM. After incubation of RNAiMax/OPTI-MEM solution at room temperature for 5 min, an equal volume of the siNA solution and the RNAiMax solution were added together for each of the siNAs.
(§3) This solution was incubated at room temperature for 20 minutes. After incubation, 20 uL of the solution was added to each of the relevant wells. The final concentration of siNA in each well was 10 nM and the final volume of RNAiMax in each well was 0.3 ul.
(§4) The time of incubation with the RNAiMax-siNA complexes was 24 hours and there was no change in media between transfection and harvesting, unless otherwise indicated.
(§5) RNA was extracted from a 96-well plate using the TaqMan® Gene Expression Cells-to-CT™ Kit (Cat# 4399002) with a modified protocol. Briefly, a 60 uL (1 plate) or 110 uL (2 plates) of the Lysis Solution with DNase I was dispensed into each well of the Lysis Buffer Plate (twin.tec full skirt plate). The lysis buffer and stop plates were stored at 4° C. until the cells were washed.
(§6) The plate was spun at 1100 rpm for 5 minutes. The culture medium was aspirated and discarded from the wells of the culture plate. The lysis was performed automatically using a BioMek FX instrument and method. After the Biomek method was completed, the lysis plate was incubated for 2 min. at room temperature. The lysis plate can be stored for 2 hours at 4° C., or at −20° C. or −80° C. for two months.
(§7) Each well of the reverse transcription plate required 10 uL of 2× reverse transcriptase Buffer, 1 uL of 20× reverse transcription enzyme and 2 uL of nuclease-free water. The reverse transcription master mix was prepared by mixing 2× reverse transcription buffer, 20× reverse transcription enzyme mix, and nuclease-free water. 13 uL of the reverse transcription master mix was dispensed into each well of the reverse transcription plate (semi-skirted). A separate reverse transcription plate was prepared for each cell plate. The plate was loaded onto a Biomek NX or Biomek FX Dual -96 and the Biomek method was run. The program is programmed to automatically added 7 uL of lysate from the cell lysis procedure described above into each well of the reverse transcription plate. The plate is sealed and spun on a centrifuge (1000 rpm for 30 seconds) to settle the contents to the bottom of the reverse transcription plate. The plate is placed in a thermocycler at 37° C. for 60 min, 95° C. for 5 min, and 4° C. until the plate is removed from the thermocycler. Upon removal, if not used immediately, the plate was frozen at −20° C.
(§8) A series of probes and primers were used to detect the various mRNA transcripts of the genes of β-Actin (human cell line only), and of CTGF and GAPDH in mouse and human cell lines. All Taqman probes and primers for the experiments here-in described were supplied as pre-validated sets by Applied Biosystems, Inc. (see Table 3).
The assays were performed on an ABI 7900 instrument, according to the manufacturer's instructions. A TaqMan Gene Expression Master Mix (provided in the Cells-to-CT™, Applied Biosystems, Cat # 4399002) was used. The PCR reactions were carried out at 50° C. for 2 min, 95° C. for 20 min followed by 40 cycles at 95° C. for 15 secs and 60° C. for 1 min. […]

CTGF mRNA [2] = assay: CTGF mRNA knockdown (Taqman RT-PCR) after siNA transfection of mouse NIH 3T3 cells; format: cell-based; settings: mouse NIH3T3 cells, 10 nM siNA, 24 hrs, average of 3 experiments, vs non-targeting control
Protocol: NIH 3T3 (mouse; ATCC cat# CRL-1658): Cells were cultured at 37° C. in the presence of 5% CO2 and grown in Dulbecco's modified Eagle's medium (DMEM) with 4 mM L-glutamine adjusted to contain 1.5 g/L sodium bicarbonate and 4.5 g/L glucose and supplemented with fetal bovine serum at a final concentration of 10%, 100 μg/mL of streptomycin, and 100 U/mL penicillin.
as §1, §2, §3, §4, §5, §6, §7, §8
The assays were performed on an ABI 7900 instrument, according to the manufacturer's instructions. A TaqMan Gene Expression Master Mix (provided in the Cells-to-CT™, Applied Biosystems, Cat # 4399002) was used. […]

Substance | % KD Human (CTGF mRNA [1]) [%] | % KD Mouse (CTGF mRNA [2]) [%]
48067-DC: siNA duplex; sense SEQ ID NO: 99 B GGGucAAGcuGccuGGGAA TTB; antisense SEQ ID NO: 100 UUCccAGGcAGcuuGAcccUU (sense GGGUCAAGCUGCCUGGGAATT; antisense UUCCCAGGCAGCUUGACCCUU; sense: DNA at AGT, 2'-fluoro at CU, [invAb] at 5' end, 3' end, backbone not given here; antisense: sugars from the 5' end rrrffmmmfmmfffmmfffmm, backbone not given here) | −3 ± 31 | 26 ± 5
48068-DC: siNA duplex; sense SEQ ID NO: 101 B uGGuuucGAGAcAGuuuAc TTB; antisense SEQ ID NO: 102 GUAAAcuGucucGAAAccAUU (sense UGGUUUCGAGACAGUUUACTT; antisense GUAAACUGUCUCGAAACCAUU; sense: DNA at AGT, 2'-fluoro at CU, [invAb] at 5' end, 3' end, backbone not given here; antisense: sugars from the 5' end rrrmmffmffffmmmmffmmm, backbone not given here) | 12 ± 22 | 65 ± 3
48069-DC: siNA duplex; sense SEQ ID NO: 103 B AGuGcAuccGGAcAccuAA TTB; antisense SEQ ID NO: 104 UUAGGuGuccGGAuGcAcuUU (sense AGUGCAUCCGGACACCUAATT; antisense UUAGGUGUCCGGAUGCACUUU; sense: DNA at AGT, 2'-fluoro at CU, [invAb] at 5' end, 3' end, backbone not given here; antisense: sugars from the 5' end rrrmmfmfffmmmfmfmffmm, backbone not given here) | 45 ± 7 | 55 ± 2
48070-DC: siNA duplex; sense SEQ ID NO: 105 B AcuGGuuucGAGAcAGuuu TTB; antisense SEQ ID NO: 106 AAAcuGucucGAAAccAGuUU (sense ACUGGUUUCGAGACAGUUUTT; antisense AAACUGUCUCGAAACCAGUUU; sense: DNA at AGT, 2'-fluoro at CU, [invAb] at 5' end, 3' end, backbone not given here; antisense: sugars from the 5' end rrrffmffffmmmmffmmfmm, backbone not given here) | 9 ± 21 | 56 ± 2
48071-DC: siNA duplex; sense SEQ ID NO: 107 B ccAAcuAuGAuGcGAGccA TTB; antisense SEQ ID NO: 108 UGGcucGcAucAuAGuuGGUU (sense CCAACUAUGAUGCGAGCCATT; antisense UGGCUCGCAUCAUAGUUGGUU; sense: DNA at AGT, 2'-fluoro at CU, [invAb] at 5' end, 3' end, backbone not given here; antisense: sugars from the 5' end rrrfffmfmffmfmmffmmmm, backbone not given here) | 30 ± 15 | 21 ± 5
48072-DC: siNA duplex; sense SEQ ID NO: 109 B AGuGuGcAcuGccAAAGAu TTB; antisense SEQ ID NO: 110 AUCuuuGGcAGuGcAcAcuUU (sense AGUGUGCACUGCCAAAGAUTT; antisense AUCUUUGGCAGUGCACACUUU; sense: DNA at AGT, 2'-fluoro at CU, [invAb] at 5' end, 3' end, backbone not given here; antisense: sugars from the 5' end rrrfffmmfmmfmfmfmffmm, backbone not given here) | −8 ± 12 | 14 ± 6
48073-DC: siNA duplex; sense SEQ ID NO: 111 B GGAGAcAuGGcGuAAAGcc TTB; antisense SEQ ID NO: 112 GGCuuuAcGccAuGucuccUU (sense GGAGACAUGGCGUAAAGCCTT; antisense GGCUUUACGCCAUGUCUCCUU; sense: DNA at AGT, 2'-fluoro at CU, [invAb] at 5' end, 3' end, backbone not given here; antisense: sugars from the 5' end rrrfffmfmffmfmfffffmm, backbone not given here) | 7 ± 7 | 25 ± 8
48074-DC: siNA duplex; sense SEQ ID NO: 113 B GGAGGAAcuAucccAccAA TTB; antisense SEQ ID NO: 114 UUGGuGGGAuAGuuccuccUU (sense GGAGGAACUAUCCCACCAATT; antisense UUGGUGGGAUAGUUCCUCCUU; sense: DNA at AGT, 2'-fluoro at CU, [invAb] at 5' end, 3' end, backbone not given here; antisense: sugars from the 5' end rrrmfmmmmfmmfffffffmm, backbone not given here) | 3 ± 9 | 21 ± 2
48075-DC: siNA duplex; sense SEQ ID NO: 115 B ccucAGAcAcuGGuuucGA TTB; antisense SEQ ID NO: 116 UCGAAAccAGuGucuGAGGUU (sense CCUCAGACACUGGUUUCGATT; antisense UCGAAACCAGUGUCUGAGGUU; sense: DNA at AGT, 2'-fluoro at CU, [invAb] at 5' end, 3' end, backbone not given here; antisense: sugars from the 5' end rrrmmmffmmfmfffmmmmmm, backbone not given here) | 36 ± 9 | 69 ± 2
48076-DC: siNA duplex; sense SEQ ID NO: 117 B AcAGuAGcAcAuuAAuuuA TTB; antisense SEQ ID NO: 118 UAAAuuAAuGuGcuAcuGuUU (sense ACAGUAGCACAUUAAUUUATT; antisense UAAAUUAAUGUGCUACUGUUU; sense: DNA at AGT, 2'-fluoro at CU, [invAb] at 5' end, 3' end, backbone not given here; antisense: sugars from the 5' end rrrmffmmfmfmffmffmfmm, backbone not given here) | −3 ± 1 | 84 ± 1
48077-DC: siNA duplex; sense SEQ ID NO: 119 B AGGAAGuAAGGGAcAcGAA TTB; antisense SEQ ID NO: 120 UUCGuGucccuuAcuuccuUU (sense AGGAAGUAAGGGACACGAATT; antisense UUCGUGUCCCUUACUUCCUUU; sense: DNA at AGT, 2'-fluoro at CU, [invAb] at 5' end, 3' end, backbone not given here; antisense: sugars from the 5' end rrrmfmffffffmffffffmm, backbone not given here) | 19 ± 2 | 71 ± 4
